Results: the supplement of paper PMC12463676, “Small-molecule dissolution of stress granules by redox modulation benefits ALS models” (Nature Chemical Biology, 2025)

compound: NC(=O)CCCCC1CCSS1 [lipoamide]; assay: thermal stability z-score vs DMSO; higher = more thermally stabilized by treatment; details: HeLa; lipoamide concentration 100 µM; arsenate co-treatment: 1 mM arsenate 1 h
Method: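 Cellular thermal proteome profiling in HeLa cells. Cells were treated with 100 µM lipoamide for 1 h, with or without 1 mM arsenate for a further 1 h, then heated to ten temperatures (37-66.3 °C), and soluble protein was quantified by TMT mass spectrometry relative to 0.1% DMSO controls. The thermal stability score (sum of log2 fold changes minus the abundance score) was transformed to a z-score; mean of n = 3 experiments.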
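Also: each temperature applied for 3 min, abundance score taken as mean log2 fold change at the two lowest temperatures, z-score obtained by mean subtraction and division by SD.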

UniProt Q96FZ2, sequence (Q96FZ2 whole entry): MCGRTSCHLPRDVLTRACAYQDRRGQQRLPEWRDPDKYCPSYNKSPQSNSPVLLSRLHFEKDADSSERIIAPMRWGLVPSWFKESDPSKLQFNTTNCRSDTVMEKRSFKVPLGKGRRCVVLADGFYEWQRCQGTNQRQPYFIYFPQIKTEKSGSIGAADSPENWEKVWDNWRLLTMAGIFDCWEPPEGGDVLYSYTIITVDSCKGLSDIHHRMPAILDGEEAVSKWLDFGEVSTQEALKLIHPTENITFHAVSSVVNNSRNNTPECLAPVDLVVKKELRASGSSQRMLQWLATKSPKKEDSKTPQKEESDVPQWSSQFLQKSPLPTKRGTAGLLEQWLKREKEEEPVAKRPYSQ
UniProt P23634, sequence (P23634 whole entry): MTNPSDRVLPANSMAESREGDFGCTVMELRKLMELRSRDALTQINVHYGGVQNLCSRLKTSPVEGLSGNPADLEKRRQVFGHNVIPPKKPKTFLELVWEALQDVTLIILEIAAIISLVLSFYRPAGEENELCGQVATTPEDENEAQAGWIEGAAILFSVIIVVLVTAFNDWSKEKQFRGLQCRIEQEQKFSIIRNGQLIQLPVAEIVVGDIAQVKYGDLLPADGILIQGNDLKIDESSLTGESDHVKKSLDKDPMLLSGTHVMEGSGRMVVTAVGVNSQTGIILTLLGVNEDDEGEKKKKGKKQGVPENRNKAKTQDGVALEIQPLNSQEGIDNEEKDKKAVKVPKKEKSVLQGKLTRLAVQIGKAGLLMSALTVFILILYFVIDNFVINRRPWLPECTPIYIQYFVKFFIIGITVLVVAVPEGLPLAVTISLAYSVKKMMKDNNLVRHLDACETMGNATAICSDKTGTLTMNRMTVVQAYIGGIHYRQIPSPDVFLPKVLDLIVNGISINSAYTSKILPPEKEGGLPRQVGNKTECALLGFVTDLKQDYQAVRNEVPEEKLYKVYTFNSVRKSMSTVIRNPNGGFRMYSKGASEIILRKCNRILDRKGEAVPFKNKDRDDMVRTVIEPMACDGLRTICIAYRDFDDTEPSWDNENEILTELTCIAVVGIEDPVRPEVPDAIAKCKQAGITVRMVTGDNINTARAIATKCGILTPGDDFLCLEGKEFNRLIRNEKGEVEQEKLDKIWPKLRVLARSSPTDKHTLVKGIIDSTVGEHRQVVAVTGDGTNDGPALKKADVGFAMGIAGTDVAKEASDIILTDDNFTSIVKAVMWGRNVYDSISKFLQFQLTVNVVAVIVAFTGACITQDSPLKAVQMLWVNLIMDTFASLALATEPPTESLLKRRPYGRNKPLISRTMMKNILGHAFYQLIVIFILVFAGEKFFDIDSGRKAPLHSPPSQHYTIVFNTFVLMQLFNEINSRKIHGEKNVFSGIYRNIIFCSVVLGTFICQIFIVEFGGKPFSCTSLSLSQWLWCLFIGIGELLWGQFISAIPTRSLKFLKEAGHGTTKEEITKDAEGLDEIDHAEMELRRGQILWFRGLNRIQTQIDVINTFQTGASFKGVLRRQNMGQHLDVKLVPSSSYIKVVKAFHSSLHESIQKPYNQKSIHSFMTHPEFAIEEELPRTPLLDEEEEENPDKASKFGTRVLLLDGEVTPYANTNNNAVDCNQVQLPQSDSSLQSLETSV
UniProt P20618, sequence (P20618 whole entry): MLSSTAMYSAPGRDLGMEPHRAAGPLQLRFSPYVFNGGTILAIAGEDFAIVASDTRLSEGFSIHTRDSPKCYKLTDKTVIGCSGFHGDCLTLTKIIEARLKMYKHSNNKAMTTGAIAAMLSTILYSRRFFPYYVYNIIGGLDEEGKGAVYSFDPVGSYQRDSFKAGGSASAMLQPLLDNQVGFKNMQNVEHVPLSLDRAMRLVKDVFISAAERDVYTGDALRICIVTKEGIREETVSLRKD
UniProt P13716, sequence (P13716 whole entry): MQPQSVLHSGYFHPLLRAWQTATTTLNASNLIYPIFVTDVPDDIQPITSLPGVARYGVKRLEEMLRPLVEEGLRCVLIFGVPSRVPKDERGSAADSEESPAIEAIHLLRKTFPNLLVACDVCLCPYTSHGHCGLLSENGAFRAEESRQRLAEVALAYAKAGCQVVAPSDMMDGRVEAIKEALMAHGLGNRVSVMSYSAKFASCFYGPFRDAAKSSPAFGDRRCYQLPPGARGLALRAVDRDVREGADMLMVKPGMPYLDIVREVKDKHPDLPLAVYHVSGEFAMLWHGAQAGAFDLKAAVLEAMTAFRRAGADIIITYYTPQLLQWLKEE
UniProt P49757, sequence (P49757 whole entry): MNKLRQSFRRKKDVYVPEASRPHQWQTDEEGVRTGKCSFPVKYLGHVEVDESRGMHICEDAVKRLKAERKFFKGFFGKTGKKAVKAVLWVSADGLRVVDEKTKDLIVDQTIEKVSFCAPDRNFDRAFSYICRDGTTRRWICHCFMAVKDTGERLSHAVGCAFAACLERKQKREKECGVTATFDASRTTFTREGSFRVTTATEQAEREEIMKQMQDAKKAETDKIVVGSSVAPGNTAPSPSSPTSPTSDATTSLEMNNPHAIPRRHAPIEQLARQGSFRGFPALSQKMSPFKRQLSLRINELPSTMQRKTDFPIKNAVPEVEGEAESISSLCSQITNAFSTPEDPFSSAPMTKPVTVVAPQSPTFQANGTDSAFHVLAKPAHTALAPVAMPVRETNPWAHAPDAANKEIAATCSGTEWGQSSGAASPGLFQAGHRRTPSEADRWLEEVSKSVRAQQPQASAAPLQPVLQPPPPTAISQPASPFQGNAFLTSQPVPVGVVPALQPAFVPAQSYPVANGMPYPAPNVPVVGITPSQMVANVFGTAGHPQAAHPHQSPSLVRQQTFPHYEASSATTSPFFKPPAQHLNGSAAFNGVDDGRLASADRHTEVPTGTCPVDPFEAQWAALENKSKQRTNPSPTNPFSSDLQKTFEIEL
UniProt Q53HC9, sequence (Q53HC9 whole entry): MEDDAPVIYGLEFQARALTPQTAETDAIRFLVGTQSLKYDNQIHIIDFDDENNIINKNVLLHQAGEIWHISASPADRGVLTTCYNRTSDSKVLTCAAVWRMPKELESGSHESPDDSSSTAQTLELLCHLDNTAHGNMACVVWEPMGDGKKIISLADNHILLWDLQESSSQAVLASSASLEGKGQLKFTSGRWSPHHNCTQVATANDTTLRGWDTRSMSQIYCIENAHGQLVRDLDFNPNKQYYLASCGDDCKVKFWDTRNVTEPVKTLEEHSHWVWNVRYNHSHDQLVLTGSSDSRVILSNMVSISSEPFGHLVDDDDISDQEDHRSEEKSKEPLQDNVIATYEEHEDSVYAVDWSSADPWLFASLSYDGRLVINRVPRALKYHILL
UniProt Q5T4B2, sequence (Q5T4B2 whole entry): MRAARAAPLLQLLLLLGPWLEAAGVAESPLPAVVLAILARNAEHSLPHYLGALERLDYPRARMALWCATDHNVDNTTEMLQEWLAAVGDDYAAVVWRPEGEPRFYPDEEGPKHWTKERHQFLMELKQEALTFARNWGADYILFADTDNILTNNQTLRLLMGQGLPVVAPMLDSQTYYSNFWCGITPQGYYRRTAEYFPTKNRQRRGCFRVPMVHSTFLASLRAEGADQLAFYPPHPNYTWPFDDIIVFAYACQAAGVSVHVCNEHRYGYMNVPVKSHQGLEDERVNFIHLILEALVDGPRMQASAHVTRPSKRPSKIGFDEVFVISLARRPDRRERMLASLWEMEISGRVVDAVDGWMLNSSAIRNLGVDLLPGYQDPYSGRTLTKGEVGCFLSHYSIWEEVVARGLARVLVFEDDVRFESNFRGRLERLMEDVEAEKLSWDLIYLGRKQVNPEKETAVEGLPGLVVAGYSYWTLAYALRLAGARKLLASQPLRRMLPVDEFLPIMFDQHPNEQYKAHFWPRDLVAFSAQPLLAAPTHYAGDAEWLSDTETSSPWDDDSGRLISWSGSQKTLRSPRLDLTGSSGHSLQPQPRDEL
UniProt Q9NXH9, sequence (Q9NXH9 whole entry): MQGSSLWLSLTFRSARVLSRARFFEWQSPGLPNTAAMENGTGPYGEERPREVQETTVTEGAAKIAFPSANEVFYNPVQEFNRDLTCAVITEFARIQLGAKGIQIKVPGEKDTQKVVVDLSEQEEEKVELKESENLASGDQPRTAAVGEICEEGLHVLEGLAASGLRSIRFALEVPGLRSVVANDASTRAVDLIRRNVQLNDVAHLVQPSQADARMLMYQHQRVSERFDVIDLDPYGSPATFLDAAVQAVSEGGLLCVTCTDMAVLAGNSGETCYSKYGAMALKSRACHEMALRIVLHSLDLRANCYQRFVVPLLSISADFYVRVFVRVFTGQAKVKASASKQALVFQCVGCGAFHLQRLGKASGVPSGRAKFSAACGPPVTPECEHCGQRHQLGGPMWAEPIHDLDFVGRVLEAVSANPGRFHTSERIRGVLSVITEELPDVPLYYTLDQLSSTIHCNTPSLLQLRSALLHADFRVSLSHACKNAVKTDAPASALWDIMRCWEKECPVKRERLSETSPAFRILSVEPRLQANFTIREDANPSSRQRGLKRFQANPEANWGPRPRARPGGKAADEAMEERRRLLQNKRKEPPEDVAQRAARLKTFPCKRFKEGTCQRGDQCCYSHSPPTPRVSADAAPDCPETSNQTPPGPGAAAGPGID
UniProt P30047, sequence (P30047 whole entry): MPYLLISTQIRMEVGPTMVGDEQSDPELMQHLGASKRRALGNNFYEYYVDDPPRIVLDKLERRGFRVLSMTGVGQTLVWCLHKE
UniProt Q13126, sequence (Q13126 whole entry): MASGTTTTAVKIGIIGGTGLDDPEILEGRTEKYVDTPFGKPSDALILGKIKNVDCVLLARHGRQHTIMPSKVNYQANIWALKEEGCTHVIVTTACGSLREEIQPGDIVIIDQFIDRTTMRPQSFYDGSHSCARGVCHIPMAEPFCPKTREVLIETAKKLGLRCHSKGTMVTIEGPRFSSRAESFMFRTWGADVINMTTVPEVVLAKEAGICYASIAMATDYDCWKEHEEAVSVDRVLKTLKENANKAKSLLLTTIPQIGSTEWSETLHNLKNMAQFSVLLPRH
UniProt Q9BPZ3, sequence (Q9BPZ3 whole entry): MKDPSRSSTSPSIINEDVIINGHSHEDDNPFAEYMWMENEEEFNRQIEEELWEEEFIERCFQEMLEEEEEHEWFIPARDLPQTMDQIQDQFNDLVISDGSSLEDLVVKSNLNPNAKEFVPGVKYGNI

Row | Target | thermal stability z-score
1 | MPI (UniProt P34949) | -0.333
2 | ILF3 (UniProt Q12906) | 1.39
3 | C9ORF78 (UniProt Q9NZ63) | 0.058
4 | FAM120A (UniProt Q9NZB2) | -0.00535
5 | TSSC1 (UniProt Q53HC9) | 0.436
6 | MRPL16 (UniProt Q9NX20) | -0.269
7 | ARL2BP (UniProt Q9Y2Y0) | -0.0213
8 | EHBP1L1 (UniProt Q8N3D4) | -0.423
9 | NT5C3A (UniProt Q9H0P0) | 0.0681
10 | FRG1 (UniProt Q14331) | 0.146
11 | GSPT2 (UniProt Q8IYD1) | -0.0489
12 | NUMB (UniProt P49757) | -0.402
13 | TMEM30A (UniProt Q9NV96) | -0.45
14 | ALAD (UniProt P13716) | 0.313
15 | CELF1 (UniProt Q92879) | -1.1
16 | ATP2B4 (UniProt P23634) | -0.147
17 | COL4A2 (UniProt P08572) | -1.15
18 | GCHFR (UniProt P30047) | -0.485

Row | Target | thermal stability z-score
19 | CERCAM (UniProt Q5T4B2) | -0.0616
20 | HNRNPF (UniProt P52597) | -0.401
21 | ASB9 (UniProt Q96DX5) | 0.263
22 | IAH1 (UniProt Q2TAA2) | 0.672
23 | VPS35 (UniProt Q96QK1) | 0.247
24 | HSPA5 (UniProt P11021) | -2.56
25 | MTAP (UniProt Q13126) | 0.145
26 | HMCES (UniProt Q96FZ2) | 0.164
27 | PSMB1 (UniProt P20618) | 1
28 | HNRNPUL2 (UniProt Q1KMD3) | 0.105
29 | TRMT1 (UniProt Q9NXH9) | 0.222
30 | ALDH1L2 (UniProt Q3SY69) | -0.223
31 | UBLCP1 (UniProt Q8WVY7) | 0.309
32 | UTP3 (UniProt Q9NQZ2) | 0.145
33 | PIR (UniProt O00625) | 3.16
34 | VWA9 (UniProt Q96SY0) | 0.159
35 | SPIN1 (UniProt Q9Y657) | 0.0956
36 | CEP83 (UniProt Q9Y592) | 0.829

same assay, conditions: HeLa; lipoamide concentration 100 µM; arsenate co-treatment: none

Row | Target | thermal stability z-score
37 | SPRYD7 (UniProt Q5W111) | 0.0188
38 | BRD8 (UniProt Q9H0E9) | -0.0134
39 | REL (UniProt Q04864) | 0.147
40 | CXORF56 (UniProt Q9H5V9) | -0.0486
41 | GSTZ1 (UniProt O43708) | 0.0552
42 | RPL10 (UniProt P27635) | -0.15
43 | SH3PXD2A (UniProt Q5TCZ1) | -1.05
44 | MTMR1 (UniProt Q13613) | -0.803
45 | ASNSD1 (UniProt Q9NWL6) | -0.0608
46 | XPO6 (UniProt Q96QU8) | 0.00854
47 | PAIP2 (UniProt Q9BPZ3) | 0.233
48 | CCDC12 (UniProt Q8WUD4) | 0.397
49 | APIP (UniProt Q96GX9) | 0.408
50 | BCAP29 (UniProt Q9UHQ4) | 0.211
51 | MINK1 (UniProt Q8N4C8) | 0.0558
52 | ASPHD1 (UniProt Q5U4P2) | 0.214
53 | SURF6 (UniProt O75683) | -1.48
54 | WWP2 (UniProt O00308) | -0.0387
55 | INPP5A (UniProt Q14642) | -0.144
56 | MARS (UniProt P56192) | -0.604
57 | GOLGA1 (UniProt Q92805) | -0.268
58 | ALDH1B1 (UniProt P30837) | 0.881
59 | SFPQ (UniProt P23246) | 2.22
60 | BTF3L4 (UniProt Q96K17) | 0.17

Row | Target | thermal stability z-score
61 | PLCD3 (UniProt Q8N3E9) | 0.151
62 | ZWILCH (UniProt Q9H900) | -0.512
63 | PPP1R7 (UniProt Q15435) | -0.182
64 | DIAPH3 (UniProt Q9NSV4) | -0.761
65 | HPDL (UniProt Q96IR7) | 0.497
66 | MAPKAP1 (UniProt Q9BPZ7) | -0.0501
67 | GTPBP6 (UniProt O43824) | -0.133
68 | EPB41 (UniProt P11171) | -0.262
69 | QKI (UniProt Q96PU8) | 0.069
70 | RPL37 (UniProt P61927) | 0.203
71 | FASTKD3 (UniProt Q14CZ7) | -0.107
72 | MPI (UniProt P34949) | -0.379
73 | ILF3 (UniProt Q12906) | 0.801
74 | C9ORF78 (UniProt Q9NZ63) | 0.278
75 | FAM120A (UniProt Q9NZB2) | -0.0221
76 | TSSC1 (UniProt Q53HC9) | -0.204
77 | MRPL16 (UniProt Q9NX20) | -0.373
78 | ARL2BP (UniProt Q9Y2Y0) | 0.0527
79 | EHBP1L1 (UniProt Q8N3D4) | -0.0281
80 | NT5C3A (UniProt Q9H0P0) | 0.155
81 | FRG1 (UniProt Q14331) | 0.243
82 | GSPT2 (UniProt Q8IYD1) | -0.153
83 | NUMB (UniProt P49757) | 0.201
84 | TMEM30A (UniProt Q9NV96) | -0.161

Row | Target | thermal stability z-score
85 | ALAD (UniProt P13716) | 0.885
86 | CELF1 (UniProt Q92879) | -0.66
87 | ATP2B4 (UniProt P23634) | -0.0358
88 | COL4A2 (UniProt P08572) | -0.802
89 | GCHFR (UniProt P30047) | -0.374
90 | CERCAM (UniProt Q5T4B2) | -0.543
91 | HNRNPF (UniProt P52597) | -0.136
92 | ASB9 (UniProt Q96DX5) | 0.826
93 | IAH1 (UniProt Q2TAA2) | 0.79
94 | VPS35 (UniProt Q96QK1) | 0.378
95 | HSPA5 (UniProt P11021) | -1.9
96 | MTAP (UniProt Q13126) | -1.41
97 | HMCES (UniProt Q96FZ2) | 0.254
98 | PSMB1 (UniProt P20618) | 0.743
99 | HNRNPUL2 (UniProt Q1KMD3) | 0.057
100 | TRMT1 (UniProt Q9NXH9) | -0.116
101 | ALDH1L2 (UniProt Q3SY69) | 0.327
102 | UBLCP1 (UniProt Q8WVY7) | -0.101
103 | UTP3 (UniProt Q9NQZ2) | 0.194
104 | PIR (UniProt O00625) | 2.76
105 | VWA9 (UniProt Q96SY0) | 0.404
106 | SPIN1 (UniProt Q9Y657) | 0.212
107 | CEP83 (UniProt Q9Y592) | 1.19
